From US7238694B2, “Rifamycin imino derivatives effective against drug-resistant microbes” (Cumbre Pharmaceuticals, Inc., priority 2004, dated 2007)
Converted amounts (≈) assume the structure as drawn.

Key:
Format in all cases: cell-based
[1] = test system: Streptococcus pneumoniae ATCC6303; test: MIC, microbroth dilution (NCCLS); settings: rifS strain, THY Broth with 1 mg/mL catalase, 5% CO2, 37° C., read-out: MIC
[2] = test system: Staphylococcus aureus ATCC29213 rpoB^H418Y; test: microbe, parasite or virus in culture; settings: Staphylococcus aureus, ATCC29213; rifR strain; Cation-Adjusted Mueller-Hinton Broth, 37° C.; read-out: MIC
[3] = test system: Staphylococcus epidermidis ATCC12228; test: MIC, microbroth dilution (NCCLS); settings: rifS strain, Cation-Adjusted Mueller-Hinton Broth, 37° C., read-out: MIC
[4] = test system: Staphylococcus aureus MT1222 gyrA^A116E grlB^S80F; test: microbe, parasite or virus in culture; settings: cipR strain, Cation-Adjusted Mueller-Hinton Broth, 37° C., read-out: MIC
[5] = test system: Streptococcus pyogenes ATCC19615; test: MIC, microbroth dilution (NCCLS); settings: rifS strain, THY Broth, 37° C., read-out: MIC
[6] = test system: Haemophilus influenzae ATCC10211; test: MIC, microbroth dilution (NCCLS); settings: rifS strain, BHI Broth with NAD and hematin, 37° C., read-out: MIC
[7] = test system: Staphylococcus aureus ATCC29213; test: MIC, microbroth dilution (NCCLS); settings: rifS strain, Cation-Adjusted Mueller-Hinton Broth, 37° C., read-out: MIC

Row | SMILES | MIC [1] [µg/mL] | MIC [2] [µg/mL] | MIC [3] [µg/mL] | MIC [4] [µg/mL] | MIC [5] [µg/mL] | MIC [6] [µg/mL] | MIC [7] [µg/mL]
1 | COc1c(N2CCC(C(C)NC3CCN(/N=C/c4c5c(O)c6c(O)c(C)c7c(c6c4O)C(=O)[C@@](C)(O/C=C/[C@H](OC)[C@@H](C)[C@@H](OC(C)=O)[C@H](C)[C@H](O)[C@H](C)[C@@H](O)[C@@H](C)/C=C/C=C(/C)C(=O)N5)O7)CC3)C2)c(F)cc2c(=O)c(C(=O)O)cn(C3CC3)c12 (mixture of isomers) [Example 41, 3-{4-[1-(3-Carboxy-1-cyclopropyl-6-fluoro-8-methoxy-4-oxo-1,4-dihydroquinolin-7-yl)-pyrrolidin-3-yl-ethylamino]-piperidin-1-yl-aminomethylenyl}-rifamycin SV] | 0.008 to 0.06 | 0.06 to 16 | 0.008 to 0.1 | 0.008 to 0.125 | 0.008 to 0.03 | 0.125 to 4 | 0.008 to 1
2 | CO[C@H]1/C=C/O[C@@]2(C)Oc3c(C)c(O)c4c(O)c(c(/C=N/NC5CCN(c6c(F)cc7c(=O)c(C(=O)O)cn(C8CC8)c7c6Cl)C5)c(O)c4c3C2=O)NC(=O)/C(C)=C\C=C\[C@H](C)[C@H](O)[C@@H](C)[C@@H](O)[C@@H](C)[C@H](OC(C)=O)[C@@H]1C (mixture of isomers) [Example 6, (R/S)-3-[1-(8-chloro-3-carboxy-1-cyclopropyl-6-fluoro-4-oxo-1,4-dihydroquinolin-7-yl)-pyrrolidin-3-ylhydrazinomethylenyl]rifamycin SV] | 0.008 to 0.06 (≈ 0.00735 to 0.0551 µM) | 0.06 to 16 (≈ 0.0551 to 14.7 µM) | 0.008 to 0.1 (≈ 0.00735 to 0.0919 µM) | 0.008 to 0.125 (≈ 0.00735 to 0.115 µM) | 0.008 to 0.03 (≈ 0.00735 to 0.0276 µM) | 0.125 to 4 (≈ 0.115 to 3.67 µM) | 0.008 to 1 (≈ 0.00735 to 0.919 µM)
3 | COc1c(N2CCN(/N=C/c3c4c(O)c5c(O)c(C)c6c(c5c3O)C(=O)[C@@](C)(O/C=C/[C@H](OC)[C@@H](C)[C@@H](OC(C)=O)[C@H](C)[C@H](O)[C@H](C)[C@@H](O)[C@@H](C)/C=C/C=C(/C)C(=O)N4)O6)C(C)C2)c(F)cc2c(=O)c(C(=O)O)cn(C3CC3)c12 (mixture of isomers) [Example 7, (R/S)-3-[4-(3-Carboxy-1-cyclopropyl-6-fluoro-8-methoxy-4-oxo-1,4-dihydroquinolin-7-yl)-2-methyl-piperazin-1-yl-aminomethylenyl]rifamycin SV] | 0.008 to 0.06 (≈ 0.00728 to 0.0546 µM) | 0.06 to 16 (≈ 0.0546 to 14.6 µM) | 0.008 to 0.1 (≈ 0.00728 to 0.0911 µM) | 0.008 to 0.125 (≈ 0.00728 to 0.114 µM) | 0.008 to 0.03 (≈ 0.00728 to 0.0273 µM) | 0.125 to 4 (≈ 0.114 to 3.64 µM) | 0.008 to 1 (≈ 0.00728 to 0.911 µM)
4 | CCn1cc(C(=O)O)c(=O)c2cc(F)c(N3CCN(/N=C/c4c5c(O)c6c(O)c(C)c7c(c6c4O)C(=O)[C@@](C)(O/C=C/[C@H](OC)[C@@H](C)[C@@H](OC(C)=O)[C@H](C)[C@H](O)[C@H](C)[C@@H](O)[C@@H](C)/C=C/C=C(/C)C(=O)N5)O7)C(C)C3)c(F)c21 (mixture of isomers) [Example 8, (R/S)-3-[4-(3-Carboxy-1-ethyl-6,8-difluoro-8-4-oxo-1,4-dihydroquinolin-7-yl)-2-methyl-piperazin-1-yl-aminomethylenyl]rifamycin SV] | 0.008 to 0.06 (≈ 0.00745 to 0.0559 µM) | 0.06 to 16 (≈ 0.0559 to 14.9 µM) | 0.008 to 0.1 (≈ 0.00745 to 0.0931 µM) | 0.008 to 0.125 (≈ 0.00745 to 0.116 µM) | 0.008 to 0.03 (≈ 0.00745 to 0.0279 µM) | 0.125 to 4 (≈ 0.116 to 3.72 µM) | 0.008 to 1 (≈ 0.00745 to 0.931 µM)
5 | CO[C@H]1/C=C/O[C@@]2(C)Oc3c(C)c(O)c4c(O)c(c(/C=N/NC5CCN(c6nc7c(cc6F)c(=O)c(C(=O)O)cn7-c6ccc(F)cc6F)C5)c(O)c4c3C2=O)NC(=O)/C(C)=C\C=C\[C@H](C)[C@H](O)[C@@H](C)[C@@H](O)[C@@H](C)[C@H](OC(C)=O)[C@@H]1C (mixture of isomers) [Example 9, (R/S)-3-[1-[3-Carboxy-1-(2,4-difluoro-phenyl)-6-fluoro-4-oxo-1,4-dihydro-[1,8]naphthyridin-7-yl]-pyrrolidinyl-3-hydrazinomethylenyl]rifamycin SV] | 0.008 to 0.06 (≈ 0.0071 to 0.0532 µM) | 0.06 to 16 (≈ 0.0532 to 14.2 µM) | 0.008 to 0.1 (≈ 0.0071 to 0.0887 µM) | 0.008 to 0.125 (≈ 0.0071 to 0.111 µM) | 0.008 to 0.03 (≈ 0.0071 to 0.0266 µM) | 0.125 to 4 (≈ 0.111 to 3.55 µM) | 0.008 to 1 (≈ 0.0071 to 0.887 µM)
6 | CO[C@H]1/C=C/O[C@@]2(C)Oc3c(C)c(O)c4c(O)c(c(/C=N/N(C5CCN(C)CC5)C5CCN(c6cc7c(cc6F)c(=O)c(C(=O)O)cn7C6CC6)C5)c(O)c4c3C2=O)NC(=O)/C(C)=C\C=C\[C@H](C)[C@H](O)[C@@H](C)[C@@H](O)[C@@H](C)[C@H](OC(C)=O)[C@@H]1C (mixture of isomers) [Example 11, (R/S)-3-[1-(3-Carboxy-1-cyclopropyl-6-fluoro-4-oxo-1,4-dihydroquinolin-7-yl)-pyrrolidin-3-yl-N′-(1-methyl-piperidin-4-yl)-hydrazinomethylenyl]rifamycin SV] | 0.008 to 0.06 (≈ 0.00695 to 0.0521 µM) | 0.06 to 16 (≈ 0.0521 to 13.9 µM) | 0.008 to 0.1 (≈ 0.00695 to 0.0869 µM) | 0.008 to 0.125 (≈ 0.00695 to 0.109 µM) | 0.008 to 0.03 (≈ 0.00695 to 0.0261 µM) | 0.125 to 4 (≈ 0.109 to 3.47 µM) | 0.008 to 1 (≈ 0.00695 to 0.869 µM)
